Row | SMILES | melting point [°C]
1 | O=C(NC1CCCCC1)NC1N=C(c2ccccc2F)c2ccccc2N(CC(=O)N2CC3CCC(CC3)C2)C1=O (racemic) | 128 to 130
2 | CCOc1ccc(CN2CCc3cc(O)ccc3C2)cc1OCC | 150 to 154
3 | COc1nc2cc(Cl)c(Cl)c(N3NN=CC3CCO)c2nc1OC (stereo unspecified) | 212 to 214
4 | CCCCCCSc1nnc(N)s1 | 113 to 115
5 | Cc1ccc2oc(Cc3nc4cc(C)ccc4o3)nc2c1 | 91
6 | O=C(O)/C=C/c1cn(-c2cc(C(F)(F)F)cc(C(F)(F)F)c2)nc1-c1cccc(Cl)c1 | 217 to 221
7 | N#Cc1cnc(Nc2ccc(OCCn3cnnc3)cc2)nc1-c1cccs1 | 228
8 | Brc1cc(Br)c(CSCc2cc(Br)c(Br)cc2Br)cc1Br | 173 to 175
9 | O=C(O)CCCCCc1nn(-c2ccccc2)c2c1CCCC2 | 95 to 97
10 | O=C(Nc1ccccc1)Oc1ccccc1 | 123 to 124
11 | FC(F)(F)c1cccc(N2CCC(N=Cc3ccccn3)=N2)c1 | 156
12 | O=C1C=CC(=O)c2cc(C(F)(F)F)ccc21 | 80 to 85
13 | Cn1ccnc1Sc1ccc(F)cc1[N+](=O)[O-] | 123 to 126
14 | Cc1noc(NS(=O)(=O)c2ccccc2-c2ccc(-c3ncccn3)cc2)c1C | > 210
15 | CC(=O)NNc1ccnc2c(NC(=O)c3c(Cl)cccc3Cl)ccc(Cl)c12 | 158 to 161
16 | CCOC(=O)C(=O)Nc1ccc(Cl)ccc1=O | 178 to 179
17 | CCc1nc2ccc(Br)cc2c2ccc(F)cc12 | 111
18 | COc1nc(Cl)nc2c1c(C#N)cn2C1OC(CO)C(O)C1O (stereo unspecified) | 194 to 195
19 | Cc1cc(-c2cccc(Cl)c2)nn2c(C)nnc12 | 194 to 196
20 | Cc1cc(NC(=O)c2cnn(-c3ccc(Cl)cc3)c2C)ccc1N1CCC(N2CCOCC2)CC1 | 235 to 245
21 | c1ccc(-c2nc(-c3ccc4cc(OCc5nnn[nH]5)ccc4c3)cs2)cc1 | 226 to 228

Row | SMILES | melting point [°C]
22 | CCC12CCC3c4ccc(OC)cc4CCC3C1CC(=CN(C)C)C2=O (stereo unspecified) | 157 to 159
23 | CC1C(Cc2ccccc2)C(=O)N(Cc2ccccc2)c2ccccc2N1C(=O)CN1C(=O)c2ccccc2C1=O (stereo unspecified) | 213 to 214
24 | Cn1cc(C(=O)NCc2ccc(Cl)cc2)c(=O)c2cc(CN3CC4CC3CO4)ccc21 (stereo unspecified) | 162 to 163
25 | CC(=O)OCC(C)(C)c1ccc(S(=O)(=O)Nc2ncnc(Cl)c2-c2ccc(C)cc2)cc1 | 188 to 189
26 | O=c1nc(-c2ccccn2)sc2ccc(Cl)cc12 | 269 to 270
27 | COC(=O)[C@H]1C[C@H](NC(=O)c2cccc(CNC(=O)OC(C)(C)C)c2)c2c(Cl)cc(Cl)cc2N1 (relative stereo) | 222 to 223
28 | O=S(=O)(NCCCCOc1ccc(-n2ccnc2)cc1)c1ccc(I)cc1 | 150 to 152
29 | COC(=O)c1ccc(C(O)c2cc3cc(Cl)cnc3n2S(=O)(=O)c2ccc(C(C)C)cc2)cc1 (stereo unspecified) | 77
30 | CSc1cccc2c1CCn1cc(-c3ccccc3)nc1C2OC1CCN(C)CC1 (stereo unspecified) | 134
31 | Cn1c(Cl)c(C=O)c2cc(Cl)ccc21 | 165 to 167
32 | O=C(Nc1nc(-c2ccco2)c(-c2ccncc2)s1)c1ccnc(CN2CCC(O)CC2)c1 | 203 to 208
33 | COC(=O)C(C)NC(=O)c1cc2cc(Cl)ccc2[nH]1 (single isomer, unassigned; (+)) | 199 to 201
34 | Cc1nc(NC(=O)c2cnn3c(C(F)(F)F)cc(-c4ccc(C(F)(F)F)c(OCC(F)(F)F)c4)nc23)sc1S(=O)(=O)NC(C)(C)CO | 275
35 | O=C(c1ccc(-c2ccc(NC(=S)Nc3ccccc3)cc2)o1)N1CCN2CCC1CC2 | 171 to 175
36 | COc1cc2c(cc1OC)C(=O)C(=Cc1cc(Cl)cc(Cl)c1)CC2 | 200 to 201
37 | O=[N+]([O-])c1cn(C2OC(CO)C(O)C2O)nn1 (stereo unspecified) | 172 to 174
38 | COc1cc2c(cc1OC)CN(c1nc(N)nc(Cl)n1)CC2 | 196 to 197
39 | Cc1noc(C)c1S(=O)(=O)n1cnc2cnccc21 | 130 to 135
40 | CN(C)C(=O)Oc1ccc(C[C@H](NC(=O)Nc2ccccc2S(=O)(=O)c2ccccc2)C(=O)O)cc1 | 115
41 | Cc1ccc(S(=O)(=O)C[C@H]2CN3C(=O)C[C@@H]3O2)cc1 (racemic) | 120 to 121
42 | CCOC(=O)c1nc(-c2ccc(Cl)cc2F)cc(N)c1OCC(F)(F)F | 123 to 135

Row | SMILES | melting point [°C]
43 | CC(C)(C)C(O)Cn1c(=O)c(=NNc2ccccc2)c(=O)n(-c2ccccc2F)c2ccccc21 (stereo unspecified) | 217 to 218
44 | O=C(O)C(Cc1ccccc1)Oc1ccc2cc(-c3csc(-c4ccccc4)n3)ccc2c1 (stereo unspecified) | 154 to 160
45 | Cc1ccc(C(=O)Nc2cccnc2)c(Nc2ccc3cn[nH]c3c2)n1 | > 280
46 | CCCCCCCOC(=O)CON=c1c2nccc3cccc(c32)n2cccc12 | 98
47 | O=C1C=C(O)CC(c2ccc3c(c2)OCCO3)C1 (stereo unspecified) | 188
48 | FC(F)(F)c1cccc(-c2ncc(CCl)c(C3CC3)n2)c1 | 92 to 95
49 | COC(=O)CC[C@H](NC(=O)c1ccc(I)cc1F)C(=O)OC | 94 to 96
50 | CCOC(=O)c1c(Cl)nn(C)c1S(=O)(=O)NC(=O)Nc1nc(OC)cc(OC)n1 | 169 to 170
51 | Cc1c(N2CCC(C3(N)CCC3)C2)c(F)cc2c(=O)c(C(=O)O)cn([C@@H]3C[C@@H]3F)c12 (stereo partly specified) | 140 to 143
52 | O=C(NCCSCc1cccc(NC(=O)C2CC2)c1)c1c(Cl)cccc1Cl | 46 to 47
53 | O=C1NC(c2c[nH]c3ccccc23)C(=O)N1CCCN1CCCCC1 (stereo unspecified) | 233 to 234
54 | COC(=O)c1ccccc1-c1ccc(C(=C2CC(C)(C)CC(C)(C)C2)c2ccc(O)cc2)cc1 | 177 to 178
55 | O=C(Nc1nc(C(Cl)(Cl)Cl)ns1)c1cc([N+](=O)[O-])cc([N+](=O)[O-])c1 | 197
56 | CC(C)(C)OC(=O)Nc1cc(N2CCOCC2)c(I)cc1[N+](=O)[O-] | 43 to 44
57 | Nn1c(=O)c2cc(F)c(S(=O)(O)=S)nc2n(C2CC2)c1=O | 167 to 169
58 | COc1ccc(-c2nc(SCc3cccc(CSc4ncnc5nc[nH]c45)c3)[nH]c2-c2ccc(OC)cc2)cc1 | 129 to 130
59 | COCc1cc(N)no1 | 49 to 52
60 | C[C@@H](O)CNc1c(-c2ccc(F)cc2)c(=O)c1=O | 235 to 237
61 | Oc1ccc(N2CCN(c3ccncc3)CC2)cc1 | 288 to 290

The remaining lines, values ahead:

Row | melting point [°C] | SMILES
62 | 106 | CC(O)(c1ccccc1)c1cc(Cl)ccc1O (stereo unspecified)
63 | 92 to 93 | COC(=O)[C@H](Cc1ccc(OCc2ccccc2)cc1)NC(=O)C(CSC(C)=O)Cc1ccccc1 (stereo partly specified)
64 | 136 to 139 | C[C@H](Nc1nc(Nc2cccc(NS(C)(=O)=O)c2)nc2[nH]cnc12)c1ccccc1
65 | 239 to 242 | COc1cc2cc([N+](=O)[O-])ccc2c([N+](=O)[O-])c1O
66 | 190 to 192 | COc1ccc(C=CC(=O)CC(=O)C=Cc2ccc(OC)c(O)c2)cc1O
67 | 262 to 264 | COc1cc2c(=O)c(S(C)=O)nn(C)c2cc1OC (stereo unspecified)
68 | 121 to 122 | COc1ccccc1Oc1cccc(CC(=O)O)c1OC
69 | 302 | COc1ccc(C(=O)Nc2c(Cl)cncc2Cl)c2c1oc1ccccc12
70 | 165 to 167 | COc1ccc(-c2csc(NC(=O)C(=O)OCCc3ccccc3)n2)cc1
71 | 186 to 188 | CCOC(=O)CCCn1cc(C(=O)O)c2nc3c(C)cccc3cc2c1=O
72 | 253 to 255 | COc1ccc(-c2nc(C(=O)NC(=N)N)sc2-c2ccc(OC)cc2)cc1
73 | 69 to 69.5 | CC(C)C(=O)Oc1ccc(C(=O)c2ccccc2)cc1
74 | 79 to 81 | CCOC(=O)C(Cc1cccc2ccccc12)(Cc1cccc2ccccc12)C(=O)OCC
75 | 174 | CC(C)(C)OC(=O)N1CCN(c2ccc3[nH]cc(Sc4ccccc4)c3c2)CC1
76 | 122 to 124 | Cc1onc(-c2ccccc2)c1C(=O)NCCCCl
77 | 185 to 186 | O=C(O)Cc1cnn(-c2ccccc2)c1-c1ccc(Cl)cc1
78 | 97 to 98 | CCCc1c(OCCCC(=O)NCCCc2cccnc2)ccc(C(C)=O)c1O
79 | 168 to 170 | COCCNc1nc(N)nc(-c2ccccc2)c1-c1ccc(=O)n(C(C)C)n1

Row | melting point [°C] | SMILES
80 | 126 to 127 | O=C(c1ccccc1)n1c(=O)c(F)cn(C2CC(O)C(CO)O2)c1=O (stereo unspecified)
81 | 386 to 388 | COc1ccc(-n2c(=O)[nH]c3c(C(N)=O)nc(-c4cccc(O)c4)nc32)cc1
82 | 55 to 57 | CCOC(=S)C(CC(=O)c1ccc(Oc2ccccc2)cc1)C(=O)CC (stereo unspecified)
83 | 295 to 305 | COc1ccc([C@H]2c3[nH]c4ccccc4c3C[C@H]3C(=O)NC(=O)N23)cc1 (relative stereo)
84 | 203 to 205 | CCOCc1nc2c(N)nc3ccccc3c2n1CC(C)(C)CS(=O)(=O)NCc1ccc(OC)cc1
85 | 114 | COc1ccccc1CNc1ccc2cc(Nc3nccc(C(F)(F)F)n3)ccc2n1
86 | 168 to 169 | COc1ccc(CN2C(=O)CCc3cc(O)c(OC)cc32)cc1
87 | 128 to 130 | Cc1ccc(S(=O)(=O)Nc2cccc(Sc3ccccc3)n2)cc1
88 | 90 to 92 | CCOC(=O)c1nnnn1Cc1ccccc1[N+](=O)[O-]
89 | 125 to 126 | CN(C(CCn1c(=O)[nH]c2ncccc2c1=O)C(=O)NO)S(=O)(=O)c1ccc(Oc2ccccc2)cc1 (stereo unspecified)
90 | 122 to 124 | COc1ccc(C(c2ccc(OC)cc2)c2cnccc2C(=O)O)cc1
91 | 99 to 103 | O=C(Cc1ccc(Cl)c(Cl)c1)c1ccc(Cl)cc1
92 | 147 to 148 | Cn1cc(-c2ccccc2)c(=O)c(-c2cccs2)c1
93 | 137 | C=C(c1ccc(OC)cc1)c1ccc(OC)cc1
94 | 112 | c1ccc(Oc2ccc(OCn3cnc4ccccc43)cc2)cc1
95 | 115 to 118 | COc1cccc([C@H]2O[C@H](CC(=O)Nc3cc(CCCCC(=O)O)ccc3F)C(=O)N(CC(C)(C)CO)c3ccc(Cl)cc32)c1OC
96 | 128 to 130 | O=C(CC(=O)N1CCOCC1)c1ccc2ccccc2c1O

Reference: a melting point compilation (Tetko et al.; mined from patent text by program, amines drawn as free bases though some values may be those of a salt)
